ChEMBL document CHEMBL3507680, “University of Dundee, Gates Library screen for HepG2 cell viability”

Assay: Human HepG2 cell viability assay in 384 well format
Assay type: toxicity, cell-based
Set-up: dose 125 nL, time 70.5 hour; concentration not given beside the values
Settings: HepG2 cells, read-out: Inhibition

Row | SMILES | cytotoxicity at 70.5 h
1 | CCCS(=O)(=O)N1CCN(CCCO)CC1 | 0.836%
2 | O=C(CSC1CCc2ccccc2NC1=O)NC1CC1 (configuration not stated) | -2.66%
3 | CC(C)NC(=O)N1CCC2(CC1)CCn1c(C3CC3)cnc12 | 51.2%
4 | Cc1cc(C(=O)N2CC[C@@H]3CN(CCC(C)C)S(=O)(=O)[C@@H]3CC2)no1 | -2.89%
5 | O=C(c1cc(-c2ccco2)cs1)N1CCCC1 | -16.3%
6 | Cc1ccc(CN2CCN(C(=O)C3CCC3)[C@@H]3CS(=O)(=O)C[C@@H]32)cc1C | -0.626%
7 | COC(=O)CNC(=O)Cn1ccc2cccc(OC)c21 | 7.12%
8 | CCc1ccc(C(COC)NC(=O)c2ccc(F)c(NC(C)=O)c2)o1 (configuration not stated) | 23.6%
9 | Cn1ccc(NC(=O)Cc2cccc(F)c2)n1 | 14.1%
10 | Cc1cc(N2CCN(CCO)CC2)nc(-c2ccncc2)n1 | 0.374%
11 | Cc1nc(CN2CCC3(C2)CN(C(=O)c2ccc[nH]2)C3)cs1 | -5.84%
12 | c1cncc(-c2noc(CN3CCCC(Cn4cncn4)C3)n2)c1 (configuration not stated) | 9.23%
13 | O=C1CC[C@H]2CN(Cc3ccc(Cl)s3)CC[C@H]2N1CCc1c[nH]cn1 | -7.7%
14 | Cc1ccc(CN2CC[C@H]3OCC[C@@]3(C(=O)N3CCCO3)C2)o1 | 2.99%
15 | O=C(c1ccc(Cl)cc1)N1CCC(N2CCCNC2=O)CC1 | -6.78%
16 | COCC(c1ccccn1)N(C)C(=O)c1cc(-c2ccc(O)cc2)n[nH]1 (configuration not stated) | -1.31%
17 | CN(CCNc1cc(N2CCCC2CO)ncn1)Cc1ccccc1 (configuration not stated) | -3.62%
18 | CC(C)C[C@H](N)COc1cccc(F)c1Oc1ccccc1 | 19.1%
19 | CN(C)C(CNC(=O)OCC(F)(F)F)c1ccsc1 (configuration not stated) | -8.54%
20 | CCS(=O)(=O)N1CCc2nnc(CN(C)C(C)C)n2CC1 | 19.5%
21 | CC(=O)N1C[C@@H](c2ccsc2)[C@@H]2CN(Cc3ccccc3C)CC[C@@H]21 | 18.9%
22 | CCOCC(O)CN1CCN(C(=O)c2ccc(N(C)C)nn2)CC1 (configuration not stated) | 24.3%
23 | CC(=O)N1CCN(c2cc(C)ncn2)CC(CO)C1 (configuration not stated) | -3.4%

Row | SMILES | cytotoxicity at 70.5 h
24 | Cc1cc(CN(C)C(=O)c2cc(COc3ccccc3)[nH]n2)n[nH]1 | -3.12%
25 | CN1CCN(C[C@@H]2OC[C@H]3CN(Cc4cccc(F)c4)CC[C@H]32)CC1 | 2.68%
26 | CC1(c2ccccc2)CCC(=O)N(CCN2CCCOC2=O)C1 (configuration not stated) | -6.79%
27 | CCN(CC)CCn1ccnc1-c1cccc(C#N)c1 | -4.77%
28 | CCS(=O)(=O)NCC(=O)N(C1CC1)C1Cc2ccccc2C1 | -9.21%
29 | CCn1cnnc1C1CCN(C(=O)c2cc(C)c(C)s2)CC1 | 15.5%
30 | COc1cccc(N2CCN(C(=O)c3noc4c3CCCC4)CC2)c1 | -20.2%
31 | OC1(CN2CCCCC2)CCN(c2ccc(C(F)(F)F)cn2)C1 (configuration not stated) | -4.17%
32 | CCCN1CCc2nc(SCc3ccccc3)[nH]c(=O)c2C1 | 8.44%
33 | Cc1cc(C)c(CNC(=O)N(C)CC2CCCCO2)c(=O)[nH]1 (configuration not stated) | -3.49%
34 | Cc1cnc(CN(Cc2ccccc2)CC(O)c2cccs2)cn1 (configuration not stated) | 7.82%
35 | CC(O)c1cn(Cc2ccccc2)nn1 (configuration not stated) | -6.51%
36 | CCCN(CC(=O)NC)C(=O)c1ccc(-c2ccsc2)nc1C | -4.88%
37 | Cc1cnc2n(c1=O)C(CC(=O)NCc1cc(-c3cccs3)on1)CS2 (configuration not stated) | 55.7%
38 | CN1CCOC(CNCc2nc(-c3ccccc3)cs2)C1 (configuration not stated) | 9.31%
39 | CN(C)C(=O)CNC(=O)c1cc2c(s1)CCN2S(C)(=O)=O | -10.7%
40 | Cc1nccc(CNC(=O)Nc2cc(C(F)(F)F)c[nH]c2=O)n1 | -5.34%
41 | Cc1cc(C2CCCN(C(=O)COc3cc(F)ccc3F)C2)n[nH]1 (configuration not stated) | 3.52%
42 | Cc1ccccc1CCC(=O)N1CCCC(c2cc(C(N)=O)[nH]n2)C1 (configuration not stated) | 6.15%
43 | Cc1ccc(NC(=O)Cc2c(C)nc3c(c2C)c(=O)[nH]n3C)cc1F | -4.3%
44 | O=C(c1ccc[nH]1)N1CCc2c(COCc3ccncc3)cncc2C1 | -3.15%
45 | CCOCCN1CCN(Cc2nc(CC(C)C)no2)CC1 | 1.47%
46 | Cc1ccc(CN2C[C@H]3OC(=O)N(Cc4ccccn4)[C@H]3C2)o1 | 2.3%

Row | SMILES | cytotoxicity at 70.5 h
47 | CS(=O)(=O)N1CCCC12CCCN(S(=O)(=O)c1cc(F)cc(F)c1)C2 (configuration not stated) | -5.59%
48 | CN(C)C(=O)CN1CCC2(CC1)CC(=O)c1ccc3ccccc3c1O2 | -6.26%
49 | COc1ccc(C(=O)Nc2c(C(=O)N(C)C)nn(C)c2C)cc1 | -6.56%
50 | CC(NC(=O)N1CCNC(=O)CC1)c1ccc(C(F)(F)F)cc1 (configuration not stated) | -19.2%
51 | Cn1c(NCC(O)c2ccc(F)c(F)c2)c(C#N)c(=O)n(C)c1=O (configuration not stated) | 1.75%
52 | COCCN(Cc1cccc(O)c1)CC1CC1 | 29.9%
53 | Cc1ccc(N2CCCC(N(C)c3nn4cc(C)nc4s3)C2)nn1 (configuration not stated) | -3.89%
54 | O=C(CC1C=CCC1)N1CCc2ncnc(NCc3ccon3)c2CC1 (configuration not stated) | 23.6%
55 | COC(=O)C1CCCCN1Cc1cccc(C(=O)NCc2ccco2)c1 (configuration not stated) | -10.4%
56 | NC(=O)CN1CC2(CCC1=O)CCN(Cc1cc(F)ccc1Cl)CC2 | -11.5%
57 | Cc1cccc(CCC(=O)Nc2cccnc2N2CCC(O)CC2)c1 | 1%
58 | NC(=O)C1(CCCc2ccncc2)CCCN1 (configuration not stated) | -3.08%
59 | N#Cc1cnc2ccccc2c1N1CCN(C(=O)C2CCC2)CC1 | -1.5%
60 | O=C(c1ccccc1F)N1CCC2(CC1)CC(N1CCCC1)CO2 (configuration not stated) | -7.88%
61 | COCCCN1CCC(NC2CSCCc3ccccc32)CC1 (configuration not stated) | 2.22%
62 | C[S+]([O-])c1cccc(NC(=O)N[C@H](CCO)c2ccccc2)c1 (some centres not stated) | -2.3%
63 | COCc1nnc(C(=O)N(C)Cc2ccc(OC)cc2)o1 | -0.9%
64 | Cc1nn(C)c(C)c1NC(=O)CN1CCc2c(nc(C3CC3)n2C)C1 | 12.4%
65 | O=C(NCCNc1ncccn1)C1CC(=O)N(Cc2ccco2)C1 (configuration not stated) | -4.28%
66 | COCCNC(=O)[C@H]1C[C@@H]2CCN(CCc3ccccc3)C[C@@H]2O1 | -4.71%
67 | CCc1noc(C)c1C(=O)N1C[C@H](NS(C)(=O)=O)[C@@H](C2CC2)C1 | -3.78%
68 | CCOc1ncccc1CNCc1c(C(C)C)nn(C)c1N(C)C | 57.6%
69 | COCCN1CCc2ncnc(OC(C)C)c2CC1 | -9.41%

Row | SMILES | cytotoxicity at 70.5 h
70 | O=C(CCn1ccccc1=O)Nc1ccc(C(=O)O)cc1 | -4.88%
71 | O=C(CN1CCCC(Cn2cncn2)C1)NCCc1cccs1 (configuration not stated) | 0.827%
72 | Cc1cc(NS(=O)(=O)c2ccc(C(=O)O)cc2F)ccc1F | -10.7%
73 | COCCS(=O)(=O)NCc1ccc(N(C)C)c(C)c1 | -7.82%
74 | CS(=O)(=O)Cc1ccc(Cl)cc1NCc1cccc(F)c1F | 2.24%
75 | CN(C)Cc1cc(C2CCCCN2S(=O)(=O)c2cccc(Cl)c2)nn1C (configuration not stated) | -3.27%
76 | CCO[C@H]1C[C@@H](O)C12CCN(C(=O)CN1CCCCCC1=O)CC2 | 6.65%
77 | Cc1nc(=O)c2ccccc2n1C1=CCN(CC(=O)N2CCCC2)CC1 | -1.43%
78 | CC(CCN1CCOCC1)NC(=O)c1cccc(C(F)(F)F)c1F (configuration not stated) | -5.66%
79 | CN(C)c1ccc2c(c1)CN(C(=O)c1cnccn1)C2c1cnco1 (configuration not stated) | 22.8%
80 | O=C1N(Cc2cccnc2)CCC12CCCNC2 (configuration not stated) | 10.6%
81 | Cc1cccc(CC2COCCN(Cc3nccn3C)C2)n1 (configuration not stated) | -2.76%
82 | CS(=O)(=O)N1CCC(NC(=O)COc2ccccc2Cl)CC1 | -3.89%
83 | Cc1ccc(CNCC2CCN(CC(O)c3ccccc3)CC2)o1 (configuration not stated) | -1.65%
84 | O=C(CCc1cscn1)N1CCC(C(=O)O)(c2ccccc2)CC1 | 4.76%
85 | O=C(CCCc1cn[nH]c1)N1C[C@H](CO)C[C@H](CN2CCCC2)C1 | -5.76%
86 | O=C(NC1CC1)C1(Cc2ccccc2-c2ccncc2)CCOCC1 | 7.42%
87 | COc1ccsc1C(=O)N1CCCC(n2nc(C)cc2C)C1 (configuration not stated) | -3.66%
88 | Cc1cc(C)c2cc(CNC3CCCCC3)c3nn(C)c(=O)n3c2c1 | 5.59%
89 | O=C(NCC1CCOC1)c1csc(-c2ccc(F)cc2)n1 (configuration not stated) | -6.03%
90 | CO[C@H]1C[C@@H](O)C12CCN(C(=O)CCSCc1ccc(F)cc1)CC2 | -18.7%
91 | CCCc1ccc(CN2CCC3(CCC(=O)N(C(C)C(=O)O)C3)CC2)o1 (configuration not stated) | -4.9%
92 | COc1ccc(NC(=O)C2OC(c3cccs3)=NN2C(C)=O)cc1 (configuration not stated) | -1.98%

Row | SMILES | cytotoxicity at 70.5 h
93 | c1cc(CN2CCOC[C@H]2c2nc(-c3ccncc3)c[nH]2)ccn1 | 1.86%
94 | O=C(CC1CCN(c2cccnn2)CC1)Nc1cccnc1 | -6.44%
95 | Cn1ccnc1CN1CCN(Cc2cc(-c3ccccc3)no2)CC1 | -16.7%
96 | O=C(c1cccs1)N1C[C@H]2CC[C@@]3(N=C(c4ccccc4)NC3=O)[C@H]2C1 | -4.38%
97 | CC(C)Nc1nc2c(c(NC3CC3)n1)CN(C(=O)Cc1ccsc1)CC2 | 3.26%
98 | Clc1ccccc1Cc1noc(CN2CCCC(CN3CCCC3)C2)n1 (configuration not stated) | -3.9%
99 | N#Cc1cccc(S(=O)(=O)Nc2c(F)cccc2N2CCCC2)c1 | -5.48%
100 | Cn1ncc2c(N3CCN(CCC(N)=O)CC3)nc(C3CCCC3)nc21 | -9.84%
101 | CCc1ccc(C(=O)O)cc1S(=O)(=O)Nc1c(C)ccn(C)c1=O | -9.15%
102 | CCC(C)NS(=O)(=O)Cc1cccc(NC(=O)C2=CCCC2)c1 (configuration not stated) | -4.4%
103 | COCC(=O)NS(=O)(=O)c1ccc(F)c(F)c1 | -2.65%
104 | CCc1nc(C2CCCN2C(=O)CCc2nc(C3CC3)no2)no1 (configuration not stated) | -1.64%
105 | O=C(Nc1ccc(S(=O)(=O)Nc2c(F)cccc2F)cc1)N1CCCC1 | -6.84%
106 | O=C(c1cnccn1)N1CCCC(Cn2cc(C3CCCC3)nn2)C1 (configuration not stated) | -10.8%
107 | CC(C)c1noc(CCCC(=O)Nc2cccc(F)c2)n1 | 15.5%
108 | Cc1cc(C)n(-c2ccc(N3CCC4(CC3)OCCO4)nc2)n1 | 3.59%
109 | Cc1nc(COc2ccc(S(=O)(=O)N(C)C)cc2)sc1C | -24.1%
110 | COc1ccc(CNC(=O)N2CCOCC2C2CC2)cc1C (configuration not stated) | -3.69%
111 | Cc1cnn(CC2CN(c3ncnc4[nH]ccc34)CCO2)c1 (configuration not stated) | 1.56%
112 | CNc1nc(CS(=O)(=O)c2ccccc2)cs1 | -7.87%
